The structures appear in SMILES notation. Read-outs that look alike come from different tables or passages of the source.

Consider 14 compounds from patent US20230145794A1, “SOLVENT COMPOSITIONS PROMOTING PLANT GROWTH” (WinField Solutions, LLC, priority 2021, published 2023).

Series [1] in a line: Physical properties of solvent/PGR compositions (flash point tester, pH, density). In kind it is physicochemical. Particulars: flashpoint tester. How it is done: The physical properties of the various solvents and solvent combinations in combination with the assortment of PGR compositions were determined using standard laboratory equipment. Flash point was determined using a flashpoint tester.
The solvents initially examined included 2-butoxy ethanol (“BE”), BHT, propylene glycol (“PG”), methoxy propanol, water, polyethelene glycol (“PEG”), and Tetrahydrofurfyl alcohol (“THFA”), alone and/or in various combinations, with and without PGR compositions including Kinetin, indole butyric acid (“IBA”) and gibberellin A4 (“GA4”).

For series [2] the following is noted: known solvent, from Safety Data Sheet; cited from earlier work.

Turning to `COCC(C)O` (stereo not shown) [Comp 40, methoxy propanol], in series [1], the “Flash Point” value was 89 C°.

As to `OCC1CCCO1` (stereo not shown) [compound 6, Tetrahydrofurfyl Alcohol], the “Flash Point” value in series [2] is 84 C. °.

`CC(O)CO` (stereo not shown) [compound 9, Propylene Glycol]: in series [2], the Density is given as 1.036 g/mL and the “Flash Point” value is given as 101 C. °.

In the case of `CCOC(C)=O` [compound 1, Ethyl acetate], in series [2], the Density is recorded as 1.049 g/mL.

Regarding `COCC(C)O` (stereo not shown) [compound 2, 1-methoxy-2-propanol], in series [2], the Density was 0.942 g/mL.

In the case of `CCCCC(CC)COC(=O)C(C)O` (stereo not shown) [compound 5, Lactic acid, 2-ethylhexyl ester], in series [2], the Density is listed as 1.209 g/mL and the “Flash Point” value was 110 C. °.

As for `CCCCOC(=O)C(C)O` (stereo not shown) [compound 8, Butyl lactate], the “Flash Point” value in series [2] was 76 C. °.

For the compound `CC(=O)OCCCCCCCC=O` [compound 11, Oxo-octyl acetate], in series [2], the “Boiling Point” value is on record as 211 C. °, the Density is recorded as 0.867 g/mL and the “Flash Point” value is listed as 86 C. °.

Regarding `CCCCOCCO` [compound 3, Ethylene glycol butyl ether, 2-butoxyl ethanol], the “Flash Point” value in series [2] is listed as 60 C. °.

With `CC(=O)OCC(COC(C)=O)OC(C)=O` [compound 12, Glyceryl triacetate], the “Flash Point” value in series [2] was 138 C. °.

Turning to `CCCCOCCOCCO` [compound 4, Diethylene glycol butyl ether], in series [2], the Density is on record as 0.967 g/mL and the “Flash Point” value was 78 C. °.

On to `OCC1CCCO1` (stereo not shown) [Comp 41, THFA], for which the “Flash Point” value in series [1] was 183 C°.

`CCCCC(CC)CO` (stereo not shown) [compound 7, Ethyl hexanol]: in series [2], the “Boiling Point” value is listed as 185 C. °, the Density is 0.833 g/mL and the “Flash Point” value is 73 C. °.

With `CCCCCOC(C)=O` [compound 14, Amyl Acetate], in series [2], the Density is 0.876 g/mL and the “Flash Point” value is 32 C. °.
